# In patent US20230365602A1, “COMPOUND FOR USE IN THE TREATMENT OF PROTOZOAL DISEASES AND PROCESS FOR PRODUCTION OF SAID COMPOUND” (QUADREL S.R.L., priority 2020, published 2023):
# Read-outs that look alike come from different tables or passages of the source.
# Legend:
# Aurora B kinase = Aurora B kinase (Homo sapiens, UniProt Q96GD4); assay: Early toxicity: Aurora B kinase inhibition; assay type: biochemical; conditions: Table 5
# hERG channel [1] = molecular target: T1, hERG channel (Homo sapiens, UniProt Q12809); assay: Early toxicity: hERG inhibition
# T1 sequence (Q12809 whole entry): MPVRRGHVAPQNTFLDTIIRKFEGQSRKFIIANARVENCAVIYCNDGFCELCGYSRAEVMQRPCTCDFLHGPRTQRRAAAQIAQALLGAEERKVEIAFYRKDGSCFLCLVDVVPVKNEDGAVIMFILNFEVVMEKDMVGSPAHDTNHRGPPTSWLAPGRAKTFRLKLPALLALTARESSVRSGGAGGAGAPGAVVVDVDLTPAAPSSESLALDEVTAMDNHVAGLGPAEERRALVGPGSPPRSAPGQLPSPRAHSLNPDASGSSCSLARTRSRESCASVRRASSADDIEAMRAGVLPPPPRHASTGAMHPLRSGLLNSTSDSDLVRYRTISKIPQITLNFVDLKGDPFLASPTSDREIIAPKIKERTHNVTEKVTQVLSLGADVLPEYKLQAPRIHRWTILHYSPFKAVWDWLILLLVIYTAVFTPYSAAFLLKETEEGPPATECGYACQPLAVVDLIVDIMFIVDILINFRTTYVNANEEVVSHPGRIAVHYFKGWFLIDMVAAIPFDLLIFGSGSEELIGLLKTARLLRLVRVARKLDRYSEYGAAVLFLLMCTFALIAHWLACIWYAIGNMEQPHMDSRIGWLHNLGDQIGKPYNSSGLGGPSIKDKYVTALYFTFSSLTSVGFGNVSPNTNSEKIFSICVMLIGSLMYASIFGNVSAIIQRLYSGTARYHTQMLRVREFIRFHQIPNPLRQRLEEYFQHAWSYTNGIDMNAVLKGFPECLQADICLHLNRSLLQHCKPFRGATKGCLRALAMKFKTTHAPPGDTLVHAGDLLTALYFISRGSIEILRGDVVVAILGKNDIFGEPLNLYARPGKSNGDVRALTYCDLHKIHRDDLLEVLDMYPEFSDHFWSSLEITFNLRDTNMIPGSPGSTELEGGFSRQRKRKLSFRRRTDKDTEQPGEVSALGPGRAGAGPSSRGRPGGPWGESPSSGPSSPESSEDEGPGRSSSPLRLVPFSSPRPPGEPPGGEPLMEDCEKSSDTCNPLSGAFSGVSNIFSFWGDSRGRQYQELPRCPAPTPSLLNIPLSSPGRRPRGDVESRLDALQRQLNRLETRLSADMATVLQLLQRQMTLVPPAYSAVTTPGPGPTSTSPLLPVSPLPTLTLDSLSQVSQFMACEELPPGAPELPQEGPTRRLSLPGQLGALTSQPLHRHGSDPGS
# [2] = system: Salmonella TA100 (base pair substitutions); assay: Ames mutagenicity testing, TA100; assay type: cell-based
# Experimental: (§1) The test has been performed in duplicate as separate experiments (Table 9). Two different Salmonella strains were tested; TA98 (frameshift mutations) and TA100 (base pair substitutions, primarily at one of the GC pairs). Values above 15 represent genotoxicity.
# [3] = system: Salmonella TA98 (frameshift mutations); assay type: cell-based
# Experimental: as §1
# [4] = Human microsomal stability; assay type: in vitro ADME
# Experimental: Furthermore, compound 19 is stable in human hepatic microsomes (samples were taken at 0, 5, 15, 30, 45 minutes) (Table 8), while the human plasma stability is 99.7% (samples were taken at 0, 15, 30, 45, 60, 120 minutes).
# [5] = Biodistribution in tissues 72 h after oral gavage; assay type: in vivo, mice; conditions: for Kp at 72 h / concentration at 72 h: BALB/c (Compound 19), NMRI (miltefosine), mouse; for Kp at 72 h: 72 h after 20 mg/kg oral gavage
# Experimental: Blood samples were collected from the tail vein at 0, 0.5, 0.75, 1, 3, 24 and 72 hours into heparinized tubes. Moreover, biodistribution of the molecule, 72h after administration, was determined in several organs of the treated mice, namely brain, liver, spleen, kidney, heart and bone marrow. […] J Chromatogr B, 865: 55-62) by liquid chromatography mass spectrometry (LC-MS/MS).
# hERG channel [6] = molecular target: T1, hERG channel; assay: in vitro
# hERG channel [7] = molecular target: T1, hERG channel
# Aurora B kinase, sequence (Q96GD4 whole entry): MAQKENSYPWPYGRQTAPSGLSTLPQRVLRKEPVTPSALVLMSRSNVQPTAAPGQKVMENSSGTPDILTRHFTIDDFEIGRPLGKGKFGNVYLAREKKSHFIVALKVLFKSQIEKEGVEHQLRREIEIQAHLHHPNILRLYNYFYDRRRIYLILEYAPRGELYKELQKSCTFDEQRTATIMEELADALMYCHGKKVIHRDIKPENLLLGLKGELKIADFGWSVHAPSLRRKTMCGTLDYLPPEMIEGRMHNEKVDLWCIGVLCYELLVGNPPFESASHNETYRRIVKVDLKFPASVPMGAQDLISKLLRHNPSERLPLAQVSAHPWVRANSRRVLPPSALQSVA
compound,measurement,setting,value
"C[N+](C)(C)CCOP(=O)([O-])OCCCCCC1CCCCCCCCCCCCCC1 [Compound 19, 5-cyclopentadecylpentyl (2-(trimethylammonio)ethyl) phosphate]",inhibition at 10 µM,Aurora B kinase,-9.92 ± 8.99%
same,"Flag for Interference, hERG",hERG channel [1]; Table 4b,(no)
same,inhibition at 10 µM,hERG channel [1]; human,4.06 ± 2.07%
same,Ames mutagenicity TA100 (values above 15 represent genotoxicity),[2]; 3.125 μM,7.5 ± 0.71
same,Ames mutagenicity TA100 (values above 15 represent genotoxicity),[2]; 6.25 μM,9.0 ± 0
same,Ames mutagenicity TA100 (values above 15 represent genotoxicity),[2]; 12.5 μM,14.0 ± 1.41
same,Ames mutagenicity TA100 (values above 15 represent genotoxicity),[2]; 25 μM,7.0 ± 2.83
same,Ames mutagenicity TA100 (values above 15 represent genotoxicity),[2]; 50 μM,10.0 ± 0
same,Ames mutagenicity TA100 (values above 15 represent genotoxicity),[2]; 100 μM,8.5 ± 4.95
same,"mutagenicity, TA100",[2]; up to 100 μM,does not exhibit mutagenicity
same,Ames mutagenicity TA98 (values above 15 represent genotoxicity),[3]; 3.125 μM,11.0 ± 8.48
same,Ames mutagenicity TA98 (values above 15 represent genotoxicity),[3]; 6.25 μM,13.0 ± 2.83
same,Ames mutagenicity TA98 (values above 15 represent genotoxicity),[3]; 12.5 μM,12.5 ± 4.95
same,Ames mutagenicity TA98 (values above 15 represent genotoxicity),[3]; 25 μM,6.5 ± 3.53
same,Ames mutagenicity TA98 (values above 15 represent genotoxicity),[3]; 50 μM,11 ± 2.82
same,Ames mutagenicity TA98 (values above 15 represent genotoxicity),[3]; 100 μM,11.0 ± 1.41
same,"mutagenicity, TA98",[3]; up to 100 μM,does not exhibit mutagenicity
same,Degradation non NADPH dependent (%),[4]; human microsomes,0%
same,Human microsomal Metabolic stability (%),"[4]; samples at 0, 5, 15, 30, 45 minutes",100%
same,times less concentration in plasma than miltefosine,[5]; 72 hours after 20 mg/kg oral gavage,6.5 times
same,Kp at 72 h,"[5]; bone marrow, read-out: Tissue/Plasma ratio Bone marrow",0.09
same,concentration at 72 h,"[5]; bone marrow, 72 hours after 20 mg/kg oral gavage, read-out: Bone marrow",200 ng/g
same,Kp at 72 h,"[5]; brain, read-out: Tissue/Plasma ratio Brain",0.248
same,concentration at 72 h,"[5]; brain, 72 hours after 20 mg/kg oral gavage, read-out: Brain",540 ± 610 ng/g
same,Kp at 72 h,"[5]; heart, read-out: Tissue/Plasma ratio Heart",0.55
same,concentration at 72 h,"[5]; heart, 72 hours after 20 mg/kg oral gavage, read-out: Heart",1200 ± 900 ng/g
same,Kp at 72 h,"[5]; kidney, read-out: Tissue/Plasma ratio Kidney",18.9
same,concentration at 72 h,"[5]; kidney, 72 hours after 20 mg/kg oral gavage, read-out: Kidney",41100 ± 15800 ng/g
same,Kp at 72 h,"[5]; liver, read-out: Tissue/Plasma ratio Liver",5.36
same,concentration at 72 h,"[5]; liver, 72 hours after 20 mg/kg oral gavage, read-out: Liver",11600 ± 880 ng/g
same,concentration at 72 h,"[5]; plasma, 72 hours after 20 mg/kg oral gavage, read-out: Plasma",2170 ± 550 ng/mL
same,Kp at 72 h,"[5]; spleen, read-out: Tissue/Plasma ratio Spleen",1.06
same,concentration at 72 h,"[5]; spleen, 72 hours after 20 mg/kg oral gavage, read-out: Spleen",2310 ± 710 ng/g
"CCCCCCCCCCCCCCCCOP(=O)([O-])OCC[N+](C)(C)C [Miltefosine, hexadecylphosphocholine, reference compound]",inhibition at 10 µM,hERG channel [6],-16.9 ± 7.34%
same,"Flag for Interference, hERG",hERG channel [7],(no)
